# Patent publication US4522815A, “Anthracycline glycosides” (priority 1982, dated 1985)
# Tests used:
# ascitic P388 leukemia = assay: Antitumor activity against ascitic P388 leukemia in CDF-1 mice, treatment i.p. on day 1; assay type: in vivo; settings: for LTS, long term survivors (≥ 60 days) / T/C, median survival time; % over untreated controls / Toxic deaths (autoptic findings on dead mice): Table 2
# Method: (§1) The primary screening […] was carried out in CDF-1 mice bearing ascitic P388 leukemia (10^6 cells/mouse). Both IIa and IIc were suspended in 10%. Tween 80 and injected intraperitoneally.
# (§2) Results of the primary screening "in vivo" carried out in CDF-1 mice bearing P388 ascitic leukemia and treated i.p. the day after tumor transplantation, are reported in Table 5.
# (§3) Antitumor activity against ascitic P388 leukekemia.
# (§4) Treatment i.p. on day 1.
# (§5) ^a median survival time; % over untreated controls
# (§6) ^b long term survivors (≥ 60 days)
# (§7) ^c evaluated on the basis of autoptic findings on dead mice
# (§8) ^d data of two experiments (range)
# (§9) ^e date of three experiments (range)
# (§10) Antitumor activity of Ib and Id against ascitic P388
# as §4
# [1] = as above; assay type: in vivo; settings: mouse, in vivo, ip, CDF-1 mice; read-out: Maximal Tolerated Dose (Mx TD)
# Method: as §1, §2, §3, §4, §5, §6, §7, §8, §9, §10, §4
# HeLa cells = assay: Colony inhibition test against HeLa cells in vitro (cloning efficiency), treatment for 24 hrs; assay type: cell-based
smiles,measurement,setting,value
"COc1cccc2c1C(=O)c1c(O)c3c(c(O)c1C2=O)C[C@@](O)(C(C)=O)C[C@@H]3O[C@H]1C=C[C@@H](O)[C@H](C)O1 [Compound IIa, 7-0-(2,3,6-trideoxy-α-L-erythro-hex-2-enopyranosyl)-daunomycinone]","LTS, long term survivors (≥ 60 days)",ascitic P388 leukemia; 75 mg/kg i.p. day 1,0/5
same,"T/C, median survival time; % over untreated controls",ascitic P388 leukemia; 75 mg/kg i.p. day 1,120%
same,Toxic deaths (autoptic findings on dead mice),ascitic P388 leukemia; 75 mg/kg i.p. day 1,0/5
same,"LTS, long term survivors (≥ 60 days)",ascitic P388 leukemia; 100 mg/kg i.p. day 1,0/10
same,"T/C, median survival time; % over untreated controls",ascitic P388 leukemia; 100 mg/kg i.p. day 1,90%
same,Toxic deaths (autoptic findings on dead mice),ascitic P388 leukemia; 100 mg/kg i.p. day 1,1/10
same,toxicity and potency vs parent drugs DNR and DX,"ascitic P388 leukemia; ascitic P388, i.p.",less toxic and potent than the parent drugs DNR and DX
same,antitumor activity on P388 ascitic leukemia,"ascitic P388 leukemia; i.p. day 1, IIa: two doses tested incl. Mx TD",inactive
same,MTD,[1],100 mg/kg
same,times less cytotoxic than DNR,"HeLa cells; HeLa cells cloning efficiency, vs DNR",about 25 times
same,activity at 0.0015 µg/mL,"HeLa cells; Homo sapiens, HeLa, Table 1, 1.5 ng/ml, 24 hrs, read-out: No of colonies, % of untreated controls",120%
same,activity at 0.0062 µg/mL,"HeLa cells; Homo sapiens, HeLa, Table 1, 6.2 ng/ml, 24 hrs, read-out: No of colonies, % of untreated controls",127%
same,activity at 0.025 µg/mL,"HeLa cells; Homo sapiens, HeLa, Table 1, 25 ng/ml, 24 hrs, read-out: No of colonies, % of untreated controls",143%
same,activity at 0.1 µg/mL,"HeLa cells; Homo sapiens, HeLa, Table 1, 100 ng/ml, 24 hrs, read-out: No of colonies, % of untreated controls",136%
same,activity at 0.4 µg/mL,"HeLa cells; Homo sapiens, HeLa, Table 1, 400 ng/ml, 24 hrs, read-out: No of colonies, % of untreated controls",146%
same,IC50,"HeLa cells; Homo sapiens, Table 1, HeLa colony inhibition, 24 hrs, read-out: ID50 (the source's name)",0.4 µg/mL
